# Test results taken from patent US11845760B2, “PRMT5 inhibitors” (AMGEN INC., priority 2020, dated 2023).
# Like-named read-outs stand apart in the source and are kept apart here.
# Assays:
# HCT116 MTAP null cells = assay: HCT116 MTAP null cell line proliferation (CellTiter-Glo cell viability, 6 days); format: cell-based; settings: HCT116 MTAP null cells, 6 days of treatment, CellTiter-Glo cell viability, read-out: HCT-116 MTAP null IC50
# Procedure, shortened: (§1)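 Viability by CellTiter-Glo after 6 days' drug exposure in wild-type HCT116 and its MTAP-null knockout, with DMSO-only control. Dosing used either 1:3 steps (top 1 or 10 μM) or 22 points in 1:2 steps (top 10 or 50 μM). IC50 taken where the fitted curve crosses 50% of control.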
# HCT116 WT cells = assay: HCT116 WT cell line proliferation (CellTiter-Glo cell viability, 6 days); format: cell-based; settings: HCT116 WT (parent) cells, 6 days of treatment, CellTiter-Glo cell viability, read-out: HCT-116 WT IC50
# Procedure, shortened: as §1
SMILES,"IC50 (HCT116 MTAP null cells; HCT116-MTAP null, 144 h)","IC50 (HCT116 WT cells; Homo sapiens, HCT-116, 144 h)",IC50 (HCT116 MTAP null cells),IC50 (HCT116 WT cells)
"C[C@@H]1COC[C@H](c2ccc(OC(F)F)nn2)N1C(=O)c1cc2c(cc1F)nc(N)c1cnn(C)c12 [Example 561, (4-amino-7-fluoro-1-methyl-1H-pyrazolo[4,3-c]quinolin-8-yl)((3S,5R)-3-(6-(difluoromethoxy)-3-pyridazinyl)-5-methyl-4-morpholinyl)methanone]",6 nM,120 nM,–,–
"C[C@H]1OCc2c1c(N)nc1cnc(C(=O)N3CCOC[C@H]3c3ccc(F)c(OC(F)(F)F)c3)cc21 (racemic) [Example 358, ((3R)-4-amino-3-methyl-1,3-dihydrofuro[3,4-c][1,7]naphthyridin-8-yl)((3R)-3-(4-fluoro-3-(trifluoromethoxy)phenyl)-4-morpholinyl)methanone and ((3R)-4-amino-3-methyl-1,3-dihydrofuro[3,4-c][1,7]naphthyridin-8-yl)((3S)-3-(4-fluoro-3-(trifluoromethoxy)phenyl)-4-morpholinyl)methanone]",313 nM,14000 nM,–,–
"Cn1ncc2c(N)nc3cc(Cl)c(C(=O)N4CC(O)(c5ccc(C(F)(F)F)cc5)C4)cc3c21 [Example 444, (4-amino-7-chloro-1-methyl-1H-pyrazolo[4,3-c]quinolin-8-yl)(3-hydroxy-3-(4-(trifluoromethyl)phenyl)-1-azetidinyl)methanone]",18 nM,499 nM,–,–
"C[C@H]1OCc2c1c(N)nc1ccc(C(=O)N3CCOC[C@H]3c3ccc(F)c(C(F)(F)F)c3)cc21 (racemic) [Example 374, ((3R)-4-amino-3-methyl-1,3-dihydrofuro [3,4-c]quinolin-8-yl)((3R)-3-(4-fluoro-3-(trifluoromethyl)phenyl)-4-morpholinyl)methanone and ((3R)-4-amino-3-methyl-1,3-dihydrofuro[3,4-c]quinolin-8-yl)((3S)-3-(4-fluoro-3-(trifluoromethyl)phenyl)-4-morpholinyl)methanone]",161 nM,9890 nM,–,–
"C[C@@H]1COC[C@H](c2ccc(OCCC(F)(F)F)nn2)N1C(=O)c1cc2c3c(c(N)nc2cc1F)[C@@H](C)OC3 [Example 565, ((3R)-4-amino-7-fluoro-3-methyl-1,3-dihydrofuro[3,4-c]quinolin-8-yl)((3R,5S)-3-methyl-5-(6-(3,3,3-trifluoropropoxy)-3-pyridazinyl)-4-morpholinyl)methanone]",6 nM,72 nM,–,–
"C[C@H]1OCc2c1c(N)nc1ccc(C(=O)N3C[C@@H](c4ccccc4)[C@@H]4CCC[C@@H]43)cc21 [Example 400, ((3R)-4-amino-3-methyl-1,3-dihydrofuro[3,4-c]quinolin-8-yl)((3R,3aS,6aS)-3-phenylhexahydrocyclopenta[b]pyrrol-1(2H)-yl)methanone]",159 nM,7000 nM,–,–
"Nc1nc2ccc(C(=O)N3CCOC[C@H]3c3ccc(OC(F)(F)F)nc3)cc2c2c1COC2 (single isomer, unassigned) [Example 591]",6160 nM,> 10000 nM,–,–
"Cc1ccccc1C1COCCN1C(=O)c1ccc2nc(N)c3c(c2c1)COC3 (racemic) [Example 362, (4-amino-1,3-dihydrofuro[3,4-c]quinolin-8-yl)-[rac-(3S)-3-(o-tolyl)morpholin-4-yl]methanone]",3410 nM,> 10000 nM,–,–
"Nc1nc2cc(F)c(C(=O)N3CCOCC3c3ccc(F)c(OC(F)(F)F)c3)cc2c2c1COC2 (racemic) [Example 347, (4-amino-7-fluoro-1,3-dihydrofuro[3,4-c]quinolin-8-yl)((3R)-3-(4-fluoro-3-(trifluoromethoxy)phenyl)-4-morpholinyl)methanone and (4-amino-7-fluoro-1,3-dihydrofuro[3,4-c]quinolin-8-yl)((3S)-3-(4-fluoro-3-(trifluoromethoxy)phenyl)-4-morpholinyl)methanone]",325 nM,4700 nM,–,–
"CC1OCc2c1c(N)nc1ccc(C(=O)N3C(C)COCC3c3ccc(C(F)(F)F)cc3F)cc21 (mixture of isomers) [Example 331, ((3R)-4-amino-3-methyl-1,3-dihydrofuro[3,4-c]quinolin-8-yl)((3R,5S)-3-(2-fluoro-4-(trifluoromethyl)phenyl)-5-methyl-4-morpholinyl)methanone and ((3R)-4-amino-3-methyl-1,3-dihydrofuro[3,4-c]quinolin-8-yl)((3S,5R)-3-(2-fluoro-4-(trifluoromethyl)phenyl)-5-methyl-4-morpholinyl)methanone]",–,–,35 nM,897 nM
"Cn1ncc2c3cc(C(=O)N4CC[C@H](c5ccc(C(F)(F)F)cc5)C4)c(F)cc3nc(N)c21 [Example 437, (4-amino-7-fluoro-3-methyl-3H-pyrazolo[3,4-c]quinolin-8-yl)((3R)-3-(4-(trifluoromethyl)phenyl)-1-pyrrolidinyl)methanone]",924 nM,16000 nM,–,–
"Nc1nc2ccc(C(=O)N3CCOC[C@H]3c3ccc(Br)cn3)cc2c2c1COC2 (single isomer, unassigned) [Example 572]",> 1000 nM,> 10000 nM,–,–

# Second part, the compound after the results:
"IC50 (HCT116 MTAP null cells; HCT116-MTAP null, 144 h)","IC50 (HCT116 WT cells; Homo sapiens, HCT-116, 144 h)",IC50 (HCT116 MTAP null cells),IC50 (HCT116 WT cells),SMILES
8710 nM,18600 nM,–,–,"Nc1nc2cnc(C(=O)N3CCOC[C@H]3c3ccc(S(F)(F)(F)(F)F)cc3)cc2c2c1COC2 (single isomer, unassigned) [Example 457]"
> 1000 nM,> 10000 nM,–,–,"Nc1nc2ncc(C(=O)N3CCOCC3c3ccc(C(F)(F)F)cc3)cc2c2c1COC2 (racemic) [Example 483, rac-(4-amino-1,3-dihydrofuro[3,4-c][1,8]naphthyridin-8-yl)(3-(4-(trifluoromethyl)phenyl)morpholino)methanone]"
9 nM,213 nM,–,–,"C[C@@H]1COC[C@H](c2ccc(C(F)(F)F)cc2)N1C(=O)c1cc2c3c(c(N)nc2cn1)COC3 [Example 523, (4-amino-1,3-dihydrofuro[3,4-c][1,7]naphthyridin-8-yl)((3R,5S)-3-methyl-5-(4-(trifluoromethyl)phenyl)-4-morpholinyl)methanone]"
22 nM,492 nM,–,–,"C[C@H]1OCc2c1c(N)nc1cnc(C(=O)N3[C@@H](C)COC[C@H]3c3ccc(C(F)(F)F)cn3)cc21 (racemic) [Example 307, ((3R)-4-amino-3-methyl-1,3-dihydrofuro[3,4-c][1,7]naphthyridin-8-yl)((3R,5S)-3-methyl-5-(5-(trifluoromethyl)-2-pyridinyl)-4-morpholinyl)methanone and ((3R)-4-amino-3-methyl-1,3-dihydrofuro[3,4-c][1,7]naphthyridin-8-yl)((3S,5R)-3-methyl-5-(5-(trifluoromethyl)-2-pyridinyl)-4-morpholinyl)methanone]"
47 nM,541 nM,–,–,"C[C@@H]1COC[C@H](c2ccc(C(F)(F)F)cn2)N1C(=O)c1cc2c3c(c(N)nc2cn1)CCC3 [Example 515, (6-amino-8,9-dihydro-7H-cyclopenta[c][1,7]naphthyridin-2-yl)((3R,5S)-3-methyl-5-(5-(trifluoromethyl)-2-pyridinyl)-4-morpholinyl)methanone]"
30 nM,509 nM,–,–,"C[C@@H]1COC[C@H](c2ccc(C(F)(F)F)cn2)N1C(=O)c1cc2c3c(c(N)nc2cn1)COC3 [Example 522, (4-amino-1,3-dihydrofuro[3,4-c][1,7]naphthyridin-8-yl)((3R,5S)-3-methyl-5-(5-(trifluoromethyl)-2-pyridinyl)-4-morpholinyl)methanone]"
134 nM,2860 nM,–,–,"C[C@H]1COC[C@@H](c2ccc(C(F)(F)F)nc2)N1C(=O)c1ccc2nc(N)c3c(c2c1)COC3 (racemic) [Example 303, (4-amino-1,3-dihydrofuro[3,4-c]quinolin-8-yl)((3R,5S)-3-methyl-5-(6-(trifluoromethyl)-3-pyridinyl)-4-morpholinyl)methanone and (4-amino-1,3-dihydrofuro[3,4-c]quinolin-8-yl)((3S,5R)-3-methyl-5-(6-(trifluoromethyl)-3-pyridinyl)-4-morpholinyl)methanone]"
445 nM,12600 nM,–,–,"Nc1nc2cc(Cl)c(C(=O)N3CC(c4ccc(C(F)(F)F)cc4)C3)cc2c2c1COC2 [Example 430, (4-amino-7-chloro-1,3-dihydrofuro[3,4-c]quinolin-8-yl)(3-(4-(trifluoromethyl)phenyl)-1-azetidinyl)methanone]"
1830 nM,> 10000 nM,–,–,"Nc1nc2cnc(C(=O)N3CCOC[C@@H]3c3cnc(C(F)(F)F)cn3)cc2c2c1COC2 (single isomer, unassigned) [Example 613]"
–,–,536 nM,23300 nM,"CC1OCc2c1c(N)nc1cnc(C(=O)N3C(C)COCC3c3ccc(C(F)(F)F)cc3F)cc21 (mixture of isomers) [Example 332, ((3S)-4-amino-3-methyl-1,3-dihydrofuro[3,4-c][1,7]naphthyridin-8-yl)((3R,5S)-3-(2-fluoro-4-(trifluoromethyl)phenyl)-5-methyl-4-morpholinyl)methanone and ((3S)-4-amino-3-methyl-1,3-dihydrofuro[3,4-c][1,7]naphthyridin-8-yl)((3S,5R)-3-(2-fluoro-4-(trifluoromethyl)phenyl)-5-methyl-4-morpholinyl)methanone]"
> 1000 nM,> 10000 nM,–,–,"Nc1nc2cnc(C(=O)N3CCOC[C@H]3c3cnc(C(F)(F)F)nc3)cc2c2c1COC2 (single isomer, unassigned) [Example 611]"
921 nM,> 10000 nM,–,–,"Nc1nc2cnc(C(=O)N3CCC(F)(F)C[C@@H]3c3ccc(OC(F)(F)F)cc3)cc2c2c1COC2 (single isomer, unassigned) [Example 600]"
